Experimental data published in PMC10541502 (Science Advances, 2023).
Ends that are not written are not given here.

Test system: C57BL/6 mice
Details: mouse

## MSPSILKHWSRQGGGKKLLGLLLKLKLK [F6P6]
  In vivo toxicity, overall finding: did not induce primary toxic irritation

## MSPSILKHWSRQGGGKLKKLLLGLLLKK [F6P1]
  In vivo toxicity, overall finding: did not induce primary toxic irritation
